± gives the expanded uncertainty stated by the source.
Conditions: Liquid, Vibrating tube method

CC(C)CCCCCCCOC(=O)c1ccccc1C(=O)OCCCCCCCC(C)C
Conditions | mass density [kg/m3]
283.15 K, 100 kPa | 974.5 ± 2.9
283.15 K, 200 kPa | 974.5 ± 2.9
283.15 K, 400 kPa | 974.6 ± 2.9
283.15 K, 600 kPa | 974.7 ± 2.9
283.15 K, 800 kPa | 974.9 ± 2.9
283.15 K, 1010 kPa | 975 ± 2.9
283.15 K, 2000 kPa | 975.5 ± 2.9
283.15 K, 3020 kPa | 976 ± 2.9
283.15 K, 4000 kPa | 976.6 ± 2.9
283.15 K, 5000 kPa | 977.1 ± 2.9
283.15 K, 6000 kPa | 977.7 ± 2.9
283.15 K, 6980 kPa | 978.2 ± 2.9
283.15 K, 8010 kPa | 978.7 ± 2.9
283.15 K, 9020 kPa | 979.3 ± 2.9
283.15 K, 10030 kPa | 979.8 ± 2.9
283.15 K, 15000 kPa | 982.4 ± 3
283.15 K, 19970 kPa | 985 ± 3
283.15 K, 25030 kPa | 987.3 ± 3
283.15 K, 29980 kPa | 989.8 ± 3
283.15 K, 35030 kPa | 992.1 ± 3
283.15 K, 40000 kPa | 994.5 ± 3
283.15 K, 45030 kPa | 996.6 ± 3
283.15 K, 49980 kPa | 998.8 ± 3
283.15 K, 55030 kPa | 1000.9 ± 3
283.15 K, 59990 kPa | 1002.6 ± 3
283.15 K, 64990 kPa | 1005.1 ± 3
288.15 K, 100 kPa | 970.7 ± 2.9
288.15 K, 200 kPa | 970.8 ± 2.9
288.15 K, 420 kPa | 970.9 ± 2.9
288.15 K, 600 kPa | 971 ± 2.9
288.15 K, 790 kPa | 971.1 ± 2.9
288.15 K, 1000 kPa | 971.2 ± 2.9
288.15 K, 1990 kPa | 971.7 ± 2.9
288.15 K, 3020 kPa | 972.3 ± 2.9
288.15 K, 4010 kPa | 972.9 ± 2.9
288.15 K, 5000 kPa | 973.4 ± 2.9
288.15 K, 6010 kPa | 974 ± 2.9
288.15 K, 7020 kPa | 974.5 ± 2.9
288.15 K, 7980 kPa | 975 ± 2.9
288.15 K, 9000 kPa | 975.5 ± 2.9
288.15 K, 10000 kPa | 976.1 ± 2.9
288.15 K, 14990 kPa | 978.7 ± 2.9
288.15 K, 19970 kPa | 981.4 ± 2.9
288.15 K, 25000 kPa | 983.8 ± 3
288.15 K, 30000 kPa | 986.4 ± 3
288.15 K, 34990 kPa | 988.8 ± 3
288.15 K, 40020 kPa | 991.1 ± 3
288.15 K, 45000 kPa | 993.3 ± 3
288.15 K, 49980 kPa | 995.7 ± 3
288.15 K, 54980 kPa | 997.7 ± 3
288.15 K, 60000 kPa | 999.9 ± 3
288.15 K, 65000 kPa | 1002 ± 3
293.15 K, 100 kPa | 967 ± 2.9
293.15 K, 200 kPa | 967.1 ± 2.9
293.15 K, 400 kPa | 967.2 ± 2.9
293.15 K, 630 kPa | 967.3 ± 2.9
293.15 K, 790 kPa | 967.4 ± 2.9
293.15 K, 1000 kPa | 967.5 ± 2.9
293.15 K, 2010 kPa | 968.1 ± 2.9
293.15 K, 3020 kPa | 968.7 ± 2.9
293.15 K, 4020 kPa | 969.2 ± 2.9
293.15 K, 4970 kPa | 969.8 ± 2.9
293.15 K, 5980 kPa | 970.3 ± 2.9
293.15 K, 7020 kPa | 970.9 ± 2.9
293.15 K, 8000 kPa | 971.5 ± 2.9
293.15 K, 9020 kPa | 972 ± 2.9
293.15 K, 10010 kPa | 972.6 ± 2.9
293.15 K, 15010 kPa | 975.2 ± 2.9
293.15 K, 20000 kPa | 977.9 ± 2.9
293.15 K, 25030 kPa | 980.5 ± 2.9
293.15 K, 30020 kPa | 983 ± 3
293.15 K, 35030 kPa | 985.4 ± 3
293.15 K, 40010 kPa | 987.8 ± 3
293.15 K, 44980 kPa | 990.1 ± 3
293.15 K, 50020 kPa | 992.4 ± 3
293.15 K, 55020 kPa | 994.6 ± 3
293.15 K, 60020 kPa | 996.8 ± 3
293.15 K, 65000 kPa | 998.9 ± 3
298.15 K, 100 kPa | 963.4 ± 2.9
298.15 K, 200 kPa | 963.4 ± 2.9
298.15 K, 410 kPa | 963.6 ± 2.9
298.15 K, 620 kPa | 963.7 ± 2.9
298.15 K, 820 kPa | 963.8 ± 2.9
298.15 K, 1000 kPa | 963.9 ± 2.9
298.15 K, 2020 kPa | 964.5 ± 2.9
298.15 K, 3040 kPa | 965 ± 2.9
298.15 K, 4030 kPa | 965.7 ± 2.9
298.15 K, 4980 kPa | 966.2 ± 2.9
298.15 K, 6070 kPa | 966.8 ± 2.9
298.15 K, 7020 kPa | 967.3 ± 2.9
298.15 K, 8040 kPa | 967.9 ± 2.9
298.15 K, 9040 kPa | 968.5 ± 2.9
298.15 K, 10030 kPa | 969 ± 2.9
298.15 K, 15010 kPa | 971.7 ± 2.9
298.15 K, 19990 kPa | 974.4 ± 2.9
298.15 K, 25000 kPa | 977 ± 2.9
298.15 K, 30020 kPa | 979.6 ± 2.9
298.15 K, 35000 kPa | 982.1 ± 2.9
298.15 K, 40020 kPa | 984.5 ± 3
298.15 K, 44970 kPa | 986.9 ± 3
298.15 K, 49990 kPa | 989.2 ± 3
298.15 K, 54970 kPa | 991.4 ± 3
298.15 K, 60000 kPa | 993.7 ± 3
298.15 K, 65020 kPa | 995.8 ± 3
303.15 K, 100 kPa | 959.7 ± 2.9
303.15 K, 200 kPa | 959.8 ± 2.9
303.15 K, 400 kPa | 959.9 ± 2.9
303.15 K, 580 kPa | 960 ± 2.9
303.15 K, 800 kPa | 960.2 ± 2.9
303.15 K, 1000 kPa | 960.3 ± 2.9
303.15 K, 2000 kPa | 960.9 ± 2.9
303.15 K, 2990 kPa | 961.4 ± 2.9
303.15 K, 4000 kPa | 962 ± 2.9
303.15 K, 5000 kPa | 962.6 ± 2.9
303.15 K, 6000 kPa | 963.2 ± 2.9
303.15 K, 7000 kPa | 963.8 ± 2.9
303.15 K, 7980 kPa | 964.3 ± 2.9
303.15 K, 9000 kPa | 964.9 ± 2.9
303.15 K, 10020 kPa | 965.5 ± 2.9
303.15 K, 14970 kPa | 968.2 ± 2.9
303.15 K, 20010 kPa | 971 ± 2.9
303.15 K, 25030 kPa | 973.6 ± 2.9
303.15 K, 30020 kPa | 976.3 ± 2.9
303.15 K, 35000 kPa | 978.8 ± 2.9
303.15 K, 40000 kPa | 981.2 ± 2.9
303.15 K, 45000 kPa | 983.6 ± 3
303.15 K, 50010 kPa | 986 ± 3
303.15 K, 54980 kPa | 988.3 ± 3
303.15 K, 60000 kPa | 990.5 ± 3
303.15 K, 64990 kPa | 992.7 ± 3
308.15 K, 100 kPa | 956.2 ± 2.9
308.15 K, 200 kPa | 956.2 ± 2.9
308.15 K, 410 kPa | 956.4 ± 2.9
308.15 K, 610 kPa | 956.5 ± 2.9
308.15 K, 800 kPa | 956.6 ± 2.9
308.15 K, 1000 kPa | 956.7 ± 2.9
308.15 K, 2010 kPa | 957.3 ± 2.9
308.15 K, 3020 kPa | 957.9 ± 2.9
308.15 K, 4000 kPa | 958.5 ± 2.9
308.15 K, 5000 kPa | 959.1 ± 2.9
308.15 K, 6000 kPa | 959.7 ± 2.9
308.15 K, 7020 kPa | 960.3 ± 2.9
308.15 K, 8000 kPa | 960.8 ± 2.9
308.15 K, 9020 kPa | 961.4 ± 2.9
308.15 K, 10000 kPa | 962 ± 2.9
308.15 K, 15010 kPa | 964.8 ± 2.9
308.15 K, 19990 kPa | 967.6 ± 2.9
308.15 K, 25000 kPa | 970.3 ± 2.9
308.15 K, 30010 kPa | 973 ± 2.9
308.15 K, 35000 kPa | 975.5 ± 2.9
308.15 K, 39990 kPa | 978 ± 2.9
308.15 K, 44990 kPa | 980.4 ± 2.9
308.15 K, 50010 kPa | 982.9 ± 3
308.15 K, 55000 kPa | 985.2 ± 3
308.15 K, 60000 kPa | 987.4 ± 3
308.15 K, 65000 kPa | 989.7 ± 3
